Laboratory results: BindingDB's records for doi:10.7270/Q2G44NRK (Burnham Center For Chemical Genomics, 2010)

Biological target: Mu-type opioid receptor (Homo sapiens, UniProt P35372)
Experiment: MOR antagonists, SAR follow-up, image-based (AID 2420)

Chain of Mu-type opioid receptor (P35372 whole entry): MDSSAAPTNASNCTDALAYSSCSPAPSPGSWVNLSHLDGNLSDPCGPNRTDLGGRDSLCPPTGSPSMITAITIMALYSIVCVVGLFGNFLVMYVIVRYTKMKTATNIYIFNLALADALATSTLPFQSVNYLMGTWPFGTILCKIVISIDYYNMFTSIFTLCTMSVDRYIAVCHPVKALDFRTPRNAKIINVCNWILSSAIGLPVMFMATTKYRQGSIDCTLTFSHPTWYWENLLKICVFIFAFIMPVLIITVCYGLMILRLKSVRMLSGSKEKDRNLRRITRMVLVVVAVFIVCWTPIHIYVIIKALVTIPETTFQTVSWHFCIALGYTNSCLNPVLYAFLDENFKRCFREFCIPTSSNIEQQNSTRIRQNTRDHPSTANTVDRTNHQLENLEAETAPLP

Row | IC50 [µM] | SMILES
1 | > 32 | CCC(N=Nc1ccnc2cc(Cl)ccc12)c1ccc(O)cc1 (configuration not stated) [4-[1-[2-(7-chloroquinolin-4-yl)hydrazinyl]propylidene]cyclohexa-2,5-dien-1-one]
2 | > 32 | Oc1ccc(CN=Nc2ccnc3cc(Cl)ccc23)cc1O [(4Z)-4-[[2-(7-chloroquinolin-4-yl)hydrazinyl]methylidene]-2-hydroxycyclohexa-2,5-dien-1-one]
